Results on 20 molecules are retold here after US5225528A, “Cyclic hexapeptide oxytocin antagonists” (priority 1990, dated 1993).

One assay addresses T1, AVP-V1 sites (Rattus norvegicus, UniProt P30560).
T1 construct: crude membrane preparation of male rat liver (AVP-V1 sites); from tissue; host or cells: male rat liver, crude membranes
Briefly: [^3 H]AVP binding to crude membrane preparation of male rat liver (AVP-V1 sites). Here is the method:
(§1) Nonspecific binding (5-10% of the total binding) was determined using 10 μM unlabeled AVP, and the binding reaction was terminated by filtration as described above for the [^3 H]OT binding assay.

In another assay the target is T2, uterine OT receptors (Rattus norvegicus, UniProt P70536).
T2 construct: from tissue; host or cells: uterus of DES-treated rats, crude membranes
T2 sequence (P70536 1-388): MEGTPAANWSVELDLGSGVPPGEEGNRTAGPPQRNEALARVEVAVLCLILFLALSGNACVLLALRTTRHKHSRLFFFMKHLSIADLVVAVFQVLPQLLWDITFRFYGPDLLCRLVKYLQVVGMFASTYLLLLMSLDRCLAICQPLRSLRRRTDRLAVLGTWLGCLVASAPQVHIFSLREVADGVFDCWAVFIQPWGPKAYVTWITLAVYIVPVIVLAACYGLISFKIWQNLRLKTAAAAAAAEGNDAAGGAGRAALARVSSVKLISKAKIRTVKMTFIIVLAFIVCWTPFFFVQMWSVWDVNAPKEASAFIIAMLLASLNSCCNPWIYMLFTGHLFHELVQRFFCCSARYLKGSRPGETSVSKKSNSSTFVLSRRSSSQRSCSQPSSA
In words: [^3 H]OT binding to uterine OT receptors, crude membrane preparation of uteri from DES-treated rats. To be noted: for IC50: rat uterus membranes, 1 nM [^3 H]OT, read-out: Receptor Binding Results IC50 (nM) [^3 H]OT. Here is the method: Competition studies were conducted at equilibrium (60 minutes; 22° C.) using 1 nM [^3 H]OT in the following assay buffer: 50 mM Tris-HCl, 5 mM MgCl2, and 0.1% BSA, pH 7.4.

Another assay deals with T3, AVP-V2 sites (Rattus norvegicus, UniProt Q00788).
T3 construct: male rat liver (AVP-V1 sites) or kidney medulla (AVP-V2 sites); from tissue; host or cells: male rat kidney medulla, crude membranes
Briefly: [^3 H]AVP binding to crude membrane preparation of male rat kidney medulla (AVP-V2 sites). The method, then:
as §1

[1] abbreviates: Receptor Binding Results IC50 (nM) [^3 H]-AVP-V1.
[2] abbreviates: rat kidney medulla membranes, 2 nM [^3 H]AVP, read-out: Receptor Binding Results IC50 (nM) [^3 H]-AVP-V2.

Read-outs that look alike come from different tables or passages of the source. Numbered stars: 1 amine (or outer) side, 2 acyl side, 3 side chain; on linkers, the order of the positions; unused ones are H or OH. Square brackets hold non-standard residues; d marks the D form. Peptide text beside a SMILES is read from it. * marks the point of attachment. d1Nal = N[C@H](Cc1cccc2ccccc12)C(=O)O; d2Nal = N[C@H](Cc1ccc2ccccc2c1)C(=O)O; dHis(π-Me) = Cn1cncc1C[C@@H](N)C(=O)O; X12 = O=C([C@@H]1CCCNN1[*:1])[*:2]; X1 = O=C([C@H]1C=CCCN1[*:1])[*:2]; Pip(4-aza) = O=C(O)[C@@H]1CNCCN1; X6 = O=C([C@H]1CCCNN1[*:1])[*:2]; dNMeF = CN[C@H](Cc1ccccc1)C(=O)O; dCha = N[C@H](CC1CCCCC1)C(=O)O; Pip = O=C(O)[C@@H]1CCCCN1; dPip = O=C(O)[C@H]1CCCCN1; Orn = NCCC[C@H](N)C(=O)O; Cbz = O=C(OCc1ccccc1)*; Bn = c1ccc(C*)cc1

T3 sequence (Q00788 whole entry): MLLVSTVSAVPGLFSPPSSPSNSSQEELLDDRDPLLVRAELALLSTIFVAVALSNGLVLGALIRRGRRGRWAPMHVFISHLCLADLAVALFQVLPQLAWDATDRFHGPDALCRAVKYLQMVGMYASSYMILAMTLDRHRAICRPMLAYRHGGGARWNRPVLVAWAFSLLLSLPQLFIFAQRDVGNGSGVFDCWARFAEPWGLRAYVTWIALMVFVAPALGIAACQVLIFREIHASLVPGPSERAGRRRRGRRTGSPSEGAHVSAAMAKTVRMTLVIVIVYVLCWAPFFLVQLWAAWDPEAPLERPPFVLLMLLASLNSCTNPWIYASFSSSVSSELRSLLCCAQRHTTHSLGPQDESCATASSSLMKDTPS
T1 sequence (P30560 whole entry): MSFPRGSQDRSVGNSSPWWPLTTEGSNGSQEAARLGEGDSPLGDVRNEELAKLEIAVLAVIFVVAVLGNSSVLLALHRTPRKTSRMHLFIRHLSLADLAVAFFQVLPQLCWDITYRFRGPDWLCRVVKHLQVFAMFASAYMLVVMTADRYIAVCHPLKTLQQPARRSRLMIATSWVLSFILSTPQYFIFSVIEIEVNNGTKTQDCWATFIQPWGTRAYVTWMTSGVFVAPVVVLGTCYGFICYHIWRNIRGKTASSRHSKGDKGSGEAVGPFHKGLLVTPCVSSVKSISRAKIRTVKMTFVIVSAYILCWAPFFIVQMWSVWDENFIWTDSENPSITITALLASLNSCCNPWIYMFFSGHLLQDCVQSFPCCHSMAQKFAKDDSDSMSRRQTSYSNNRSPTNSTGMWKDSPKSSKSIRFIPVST

`CC[C@H](C)[C@@H]1NC(=O)[C@@H](Cc2c[nH]c3ccccc23)NC(=O)[C@@H]2CCCN2C(=O)[C@H](Cc2c[nH]cn2)NC(=O)[C@H](CCCNC(=O)OCc2ccccc2)NC(=O)[C@H]2CCCN2C1=O` [Example 95, c-[D-Tryptophanyl-L-isoleucinyl-D-prolyl-L-ornithinyl(Cbz)-D-histidyl-L-prolyl]] (cyclo([dW]I[dP][Orn](Cbz)HP)): the 50% inhibitory concentration (IC50) on AVP-V1 sites (setting [1]) and at AVP-V2 sites (setting [2]) was greater than 10000 nM in each case. At uterine OT receptors (1 h, @ 100 (nM), read-out: [^3 H]OT: percent inhibition of radioligand at the given concentration), the inhibition at 0.1 µM was determined as 36%.

Regarding `CC[C@H](C)[C@@H]1NC(=O)[C@@H](Cc2ccccc2)NC(=O)[C@@H]2CCCN2C(=O)[C@@H](Cc2ccccc2)N(C)C(=O)[C@H]2C=CCCN2C(=O)[C@H]2CCCCN2C1=O` [Example 22, Cyclo[D-Phenylalanyl-L-isoleucyl-D-pipecolyl-D-(3,4-Dehydro)-pipecolyl-D-(N^α methyl)phenylalanyl-L-Prolyl]] (cyclo(I[dPip][X1][dNMeF]P[dF])), the IC50 (usually the midpoint of a concentration-inhibition curve) at AVP-V1 sites (setting [1]) is greater than 10000 nM; on uterine OT receptors it was 2400 nM; on AVP-V2 sites (setting [2]) it was greater than 10000 nM.

Take “C-[D,L-3-(3-(7-Methyl)indolyl)alanyl-L-isoleucyl-D-pipecolyl-L-pipecolyl-D- histidyl-L-prolyl] [Example 155]”: on uterine OT receptors (@ 100 (nM)), the “[^3 H]OT: percent inhibition of radioligand at the given concentration” value (shortened to “[^3 H]OT: percent inhibition”) was found to be 48%. In addition, the “[^3 H]-AVP-V2: percent inhibition of radioligand at the given concentration” value on AVP-V2 sites (@ 1,000 (nM)) came out at 30%.

Turning to `CC[C@H](C)[C@@H]1NC(=O)[C@@H](Cc2ccccc2)NC(=O)[C@@H]2CCCN2C(=O)[C@@H](Cc2ccccc2)NC(=O)[C@@H]2CCCNN2C(=O)[C@H]2CCCNN2C1=O` [Example 96, c-[L-prolyl-D-phenylalanyl-L-isoleucyl-D-piperazyl-L-piperazyl-D-phenylalanyl]] (cyclo(I[X6][X12][dF]P[dF])), the half-maximal inhibitory concentration (IC50) on AVP-V1 sites (read-out: Receptor Binding Results IC50 (nM) [^3 H]-AVP-V1) was found to be 2900 nM; on uterine OT receptors, 245 nM.

“c-[D,L-3-(3-(1-Methyl)indolyl)alanyl-L-isoleucyl-D-pipecolyl-L-pipecolyl-D- histidyl-L-prolyl] [Example 153]”: the “[^3 H]OT: percent inhibition” value at uterine OT receptors (@ 10 (nM)) is given as 48%. For the same molecule, the “[^3 H]-AVP-V2: percent inhibition of radioligand at the given concentration” value on AVP-V2 sites (@ 1,000 (nM)) is 35%.

In the case of `CC[C@H](C)[C@@H]1NC(=O)[C@@H](Cc2cccc3ccccc23)NC(=O)[C@@H]2CCCN2C(=O)[C@@H](Cc2cnc[nH]2)NC(=O)[C@@H]2CCCCN2C(=O)[C@H]2CCCCN2C1=O` [Example 11, Cyclo[D-a-naphthalalanyl-L-isoleucyl-D-pipecolyl-L-pipecolyl-D-histidyl-L-prolyl]] (cyclo(I[dPip][Pip][dH]P[d1Nal])), the IC50 at AVP-V1 sites (setting [1]) and on AVP-V2 sites (Receptor Binding Results IC50 (nM) [^3 H]-AVP-V2) was greater than 1000 nM each time.

For the molecule `CC[C@H](C)[C@@H]1NC(=O)[C@@H](Cc2ccc3ccccc3c2)NC(=O)[C@@H]2CCCN2C(=O)[C@@H](Cc2ccccc2)N(C)C(=O)[C@H](CCCCN)NC(=O)[C@H]2CCCCN2C1=O` [Example 140, C-[D-2-Napthylalanyl-L-isoleucyl-D-pipecolyl-L-lysyl-D-(N-methyl)phenylalanyl-L-prolyl]] (cyclo([d2Nal]I[dPip]K[dNMeF]P)), the inhibition at 1 µM at AVP-V2 sites (0.5 h, @ 1,000 (nM), read-out: [^3 H]-AVP-V2: percent inhibition of radioligand at the given concentration) is 84%.

As for `CC[C@H](C)[C@@H]1NC(=O)[C@@H](Cc2ccccc2)NC(=O)[C@@H]2CCCN2C(=O)[C@@H](CSCc2ccccc2)NC(=O)[C@@H]2CCCN2C(=O)[C@H]2CCCN2C1=O` [Example 59, c-[D-Phenylalanyl-L-isoleucyl-D-prolyl-L-prolyl-D-crsteinyl(Bzl)-L-prolyl]] (cyclo([dC](Bn)P[dF]I[dP]P)), on uterine OT receptors, the IC50 was greater than 1000 nM.

As to `CC[C@H](C)[C@@H]1NC(=O)[C@@H](Cc2ccccc2)NC(=O)[C@@H]2CCCN2C(=O)[C@@H](CCC(N)=O)NC(=O)[C@@H]2CCCN2C(=O)[C@H]2CCCN2C1=O` [Example 68, c-[D-Phenylalanyl-L-isoleucyl-D-prolyl-L-prolyl-D-α-glutaminyl-L-prolyl]] (cyclo([dF]I[dP]P[dQ]P)), the IC50 at uterine OT receptors is greater than 10000 nM.

Take `CC[C@H](C)[C@@H]1NC(=O)C(Cc2cn(C)c3ccccc23)NC(=O)[C@@H]2CCCN2C(=O)[C@@H](Cc2c[nH]cn2)NC(=O)[C@@H]2CCCCN2C(=O)[C@H]2CCCCN2C1=O` (single isomer, unassigned) [153 lower Rf]: the inhibition at 10 µM at AVP-V2 sites (0.5 h, @ 10,000 (nM), read-out: [^3 H]-AVP-V2: percent inhibition of radioligand at the given concentration) worked out at 73%.

As for `CC[C@H](C)[C@@H]1NC(=O)[C@@H](CC2CCCCC2)NC(=O)[C@@H]2CCCN2C(=O)[C@@H](Cc2ccccc2)NC(=O)[C@@H]2CCCN2C(=O)[C@H]2CCCN2C1=O` [Example 55] (cyclo([dCha]I[dP]P[dF]P)), the IC50 at uterine OT receptors came out at 2500 nM.

For the molecule `CC[C@@H](C)[C@H]1NC(=O)[C@H](Cc2ccccc2)NC(=O)[C@H]2CCCN2C(=O)[C@H](Cc2ccccc2)NC(=O)[C@H]2CCCN2C(=O)[C@@H]2CCCN2C1=O` [Example 60, c-[L-Phenylalanyl-D-isoleucyl-L-prolyl-D-prolyl-L-phenylalanyl-D-prolyl]] (cyclo(F[dI]P[dP]F[dP])), on uterine OT receptors, the IC50 is greater than 10000 nM.

Turning to `CC[C@H](C)[C@@H]1NC(=O)[C@@H](Cc2cccc3ccccc23)NC(=O)[C@@H]2CCCN2C(=O)[C@@H](Cc2c[nH]cn2)NC(=O)[C@@H]2CCCCN2C(=O)[C@H]2CCCCN2C1=O` [Example 11, Cyclo[D-a-naphthalalanyl-L-isoleucyl-D-pipecolyl-L-pipecolyl-D-histidyl-L-prolyl]] (cyclo(I[dPip][Pip][dH]P[d1Nal])), the inhibition at 0.01 µM on uterine OT receptors (1 h, @ 10 (nM), read-out: [^3 H]OT: percent inhibition of radioligand at the given concentration) came to 39%.

Consider “c-[D-Phenylalanyl-L-isoleucinyl-D-pipecolyl-D-piperazin-2-yl(4-Cbz)-L-(BOM)histidyl-L-prolyl] [Example 93]”, for which, at uterine OT receptors (@ 1,000 (nM)), the “[^3 H]OT: percent inhibition” value is on record as 42%.

With `CN1C(=O)[C@@H]2CCCCN2C(=O)[C@H]2CCCCN2C(=O)[C@H](Cc2ccccc2)NC(=O)[C@@H](Cc2c[nH]c3ccccc23)NC(=O)[C@@H]2CCCN2C(=O)[C@H]1Cc1ccccc1` [Example 134, c-[D-Tryptophanyl-L-phenylalanyl-D-pipecolyl-L-pipecolyl-D-(N-methyl)phenylalanyl-prolyl]] (cyclo(F[dPip][Pip][dNMeF]P[dW])), the half-maximal inhibitory concentration (IC50) was determined as 110 nM at uterine OT receptors and 8000 nM on AVP-V2 sites (read-out: Receptor Binding Results IC50 (nM) [^3 H]-AVP-V2).

In the case of `CC[C@H](C)[C@@H]1NC(=O)[C@@H](Cc2ccccc2)NC(=O)[C@@H]2CCCN2C(=O)[C@@H](Cc2ccccc2)N(C)C(=O)[C@@H]2CCCN2C(=O)[C@H]2CCCN2C1=O` [Example 52, c-[D-Phenylalanyl-L-isoleucyl-D-prolyl-L-prolyl-N-methyl-D-phenylalanyl-L-prolyl]] (cyclo([dNMeF]P[dF]I[dP]P)), the IC50 on uterine OT receptors was 3400 nM.

Turning to `CC[C@H](C)[C@@H]1NC(=O)[C@@H](Cc2ccccc2)NC(=O)[C@@H]2CCCN2C(=O)[C@@H]([C@H](C)O)NC(=O)[C@@H]2CCCN2C(=O)[C@H]2CCCN2C1=O` [Example 62, c-[D-Phenylalanyl-L-isoleucyl-D-prolyl-L-prolyl-D-threoninyl-L-prolyl]] (cyclo([dT]P[dF]I[dP]P)), the IC50 on uterine OT receptors is greater than 1000 nM.

On to `CC[C@H](C)[C@@H]1NC(=O)[C@@H](Cc2ccccc2)NC(=O)[C@@H]2CCCN2C(=O)[C@@H](Cc2ccccc2)NC(=O)[C@@H]2CCCN2C(=O)[C@H]2CCCN2C1=O` [Example 53, c-[D-Phenylalanyl-L-isoleucyl-D-prolyl-L-prolyl-D-phenylalanyl-L-prolyl]] (cyclo([dF]P[dF]I[dP]P)), for which the IC50 on uterine OT receptors was determined as 2600 nM.

In the case of `O=C1N[C@H](Cc2ccccc2)C(=O)N2CCC[C@H]2C(=O)N[C@H](Cc2ccccc2)C(=O)N2CCC[C@H]2C(=O)N2CCC[C@@H]2C(=O)N2CCC[C@@H]12` [Example 64, c-[D-Phenylalanyl-L-prolyl-D-prolyl-L-prolyl-D-phenylalanyl-L-prolyl]] (cyclo([dF]P[dF]P[dP]P)), the IC50 at uterine OT receptors is greater than 10000 nM.

For the molecule `CC[C@H](C)[C@@H]1NC(=O)[C@@H](Cc2ccccc2)NC(=O)[C@@H]2CCCN2C(=O)[C@@H](Cc2cncn2C)NC(=O)[C@@H]2CNCCN2C(=O)[C@H]2CCCCN2C1=O` [Example 178, c-[D-Phenylalany-L-isoleucinyl-D-pipecolyl-L-piperazin-2-yl-D-(N^immethyl)histidinyl-L-prolyl]] (cyclo(I[dPip][Pip(4-aza)][dHis(π-Me)]P[dF])), at uterine OT receptors (1 h, @ 1,000 (nM), read-out: [^3 H]OT: percent inhibition of radioligand at the given concentration), the inhibition at 1 µM was 77%.
